Data reported in ChEMBL document CHEMBL3217568, “trans-Stilbenoids: potent and selective inhibitors for human cytochrome P450 1B1” (Medchemcomm, 2011).
pIC50, pKi: −log10 of the molar value.

How the values were obtained:
Cytochrome P450 1B1 [1] = biological target: T1, Cytochrome P450 1B1 (Homo sapiens, UniProt Q16678); test: Inhibition of human CYP1B1 expressed in Escherichia coli assessed as changes in ethoxyresorufin O-deethylation activity after 3 mins by spectrofluorometer analysis
T1 sequence (Q16678 whole entry): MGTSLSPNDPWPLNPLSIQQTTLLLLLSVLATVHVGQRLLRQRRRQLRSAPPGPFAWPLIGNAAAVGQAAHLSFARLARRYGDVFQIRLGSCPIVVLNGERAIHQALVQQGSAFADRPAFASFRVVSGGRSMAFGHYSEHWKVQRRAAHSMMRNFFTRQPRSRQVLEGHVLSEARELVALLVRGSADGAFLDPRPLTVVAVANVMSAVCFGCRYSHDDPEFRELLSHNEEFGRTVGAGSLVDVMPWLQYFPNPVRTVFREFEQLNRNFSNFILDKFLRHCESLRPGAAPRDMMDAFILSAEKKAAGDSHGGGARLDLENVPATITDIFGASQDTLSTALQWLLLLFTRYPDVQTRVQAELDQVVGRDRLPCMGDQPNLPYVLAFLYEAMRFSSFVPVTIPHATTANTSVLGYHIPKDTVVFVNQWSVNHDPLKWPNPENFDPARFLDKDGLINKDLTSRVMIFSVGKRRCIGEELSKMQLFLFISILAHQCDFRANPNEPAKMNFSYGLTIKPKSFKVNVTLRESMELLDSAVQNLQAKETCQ

Cytochrome P450 1A2 = biological target: T2, Cytochrome P450 1A2 (Homo sapiens, UniProt P05177); test: Inhibition of human CYP1A2 expressed in Escherichia coli assessed as changes in ethoxyresorufin O-deethylation activity after 3 mins by spectrofluorometer analysis; type: ADME
T2 sequence (P05177 whole entry): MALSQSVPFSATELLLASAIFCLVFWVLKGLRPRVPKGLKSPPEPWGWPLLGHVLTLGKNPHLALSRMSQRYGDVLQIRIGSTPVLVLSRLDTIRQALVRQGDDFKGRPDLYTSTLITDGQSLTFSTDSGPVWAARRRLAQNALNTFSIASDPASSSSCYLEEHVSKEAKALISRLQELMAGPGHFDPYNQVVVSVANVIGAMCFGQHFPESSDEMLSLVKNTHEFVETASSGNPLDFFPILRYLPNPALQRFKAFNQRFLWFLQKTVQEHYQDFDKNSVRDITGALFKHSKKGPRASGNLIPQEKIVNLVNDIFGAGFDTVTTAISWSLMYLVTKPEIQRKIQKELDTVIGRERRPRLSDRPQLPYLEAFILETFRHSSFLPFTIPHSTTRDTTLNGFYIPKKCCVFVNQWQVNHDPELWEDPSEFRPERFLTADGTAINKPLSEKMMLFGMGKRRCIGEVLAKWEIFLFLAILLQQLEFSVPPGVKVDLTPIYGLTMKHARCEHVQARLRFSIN

Homo sapiens [2] = species on record: Homo sapiens; test: Selectivity ratio of IC50 for human CYP1A2 to IC50 for human CYP1B1
Homo sapiens [3] = species on record: Homo sapiens; test: Selectivity ratio of IC50 for human CYP1A1 to IC50 for human CYP1B1
Cytochrome P450 1A1 [4] = biological target: T3, Cytochrome P450 1A1 (Homo sapiens, UniProt P04798); test: Inhibition of human CYP1A1 expressed in Escherichia coli assessed as changes in ethoxyresorufin O-deethylation activity after 3 mins by spectrofluorometer analysis; type: ADME
T3 sequence (P04798 whole entry): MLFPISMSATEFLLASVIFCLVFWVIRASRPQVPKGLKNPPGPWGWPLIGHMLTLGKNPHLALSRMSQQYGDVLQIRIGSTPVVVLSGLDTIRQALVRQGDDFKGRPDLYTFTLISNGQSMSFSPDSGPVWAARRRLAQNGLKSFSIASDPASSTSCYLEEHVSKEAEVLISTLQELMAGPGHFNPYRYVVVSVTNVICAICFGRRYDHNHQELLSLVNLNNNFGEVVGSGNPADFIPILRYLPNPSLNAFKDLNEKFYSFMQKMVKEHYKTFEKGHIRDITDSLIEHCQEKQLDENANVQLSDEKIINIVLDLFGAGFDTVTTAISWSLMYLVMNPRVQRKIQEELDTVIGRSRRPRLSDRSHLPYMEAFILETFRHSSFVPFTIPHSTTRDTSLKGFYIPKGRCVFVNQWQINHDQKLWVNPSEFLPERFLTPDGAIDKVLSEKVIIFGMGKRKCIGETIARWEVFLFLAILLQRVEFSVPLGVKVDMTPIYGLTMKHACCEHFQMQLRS

Cytochrome P450 1A1 [5] = biological target: T3, Cytochrome P450 1A1; test: Inhibition of CYP1A1 (unknown origin); type: ADME
Cytochrome P450 1B1 [6] = biological target: T1, Cytochrome P450 1B1; test: Inhibition of CYP1B1 (unknown origin)

In the case of `COc1ccc(OC)c(/C=C/c2ccc(OC)cc2OC)c1`, the pIC50 (Cytochrome P450 1B1 [1]) was 8.45, the pIC50 (Cytochrome P450 1A2) was 6.52 and the Ratio IC50 (Homo sapiens [2]) was 86. The Ratio IC50 (Homo sapiens [3]) was 100 and the pIC50 (Cytochrome P450 1A1 [4]) was 6.46.

With `COc1ccc(/C=C/c2c(OC)ccc(OC)c2OC)c(OC)c1` the pIC50 (Cytochrome P450 1B1 [1]) was 8.48, the pIC50 (Cytochrome P450 1A2) was 5.76 and the Ratio IC50 (Homo sapiens [2]) was 526. It also gave a Ratio IC50 (Homo sapiens [3]) of 127 and a pIC50 (Cytochrome P450 1A1 [4]) of 6.38.

Compound `COc1ccc(/C=C/c2cc(OC)c(OC)c(OC)c2)c(OC)c1` has a pIC50 (Cytochrome P450 1B1 [1]) of 7.15, a pIC50 (Cytochrome P450 1A2) of 5.33 and a Ratio IC50 (Homo sapiens [2]) of 66. The Ratio IC50 (Homo sapiens [3]) was 4.2 and the pIC50 (Cytochrome P450 1A1 [4]) was 6.52.

Work on `COc1ccc(/C=C/c2cccc(OC)c2OC)c(OC)c1` yielded a pIC50 (Cytochrome P450 1B1 [1]) of 7.22, a pIC50 (Cytochrome P450 1A2) of 6.61 and a Ratio IC50 (Homo sapiens [2]) of 4.1. The Ratio IC50 (Homo sapiens [3]) was 3.2 and the pIC50 (Cytochrome P450 1A1 [4]) was 6.72.

Work on `COc1cccc(/C=C/c2ccc(OC)cc2OC)c1` yielded a pIC50 (Cytochrome P450 1B1 [1]) of 7.82, a pIC50 (Cytochrome P450 1A2) of 6.04 and a Ratio IC50 (Homo sapiens [2]) of 59. For the same compound, the Ratio IC50 (Homo sapiens [3]) was 6.5 and the pIC50 (Cytochrome P450 1A1 [4]) was 7.01.

`COc1ccc(/C=C/c2c(OC)cccc2OC)c(OC)c1` was tested, and the pIC50 (Cytochrome P450 1B1 [1]) was 8.75, the pIC50 (Cytochrome P450 1A2) was 6.77 and the Ratio IC50 (Homo sapiens [2]) was 95. For the same compound, the Ratio IC50 (Homo sapiens [3]) was 194 and the pIC50 (Cytochrome P450 1A1 [4]) was 6.46.

`COc1ccc(/C=C/c2ccccc2OC)c(OC)c1` gave a pIC50 (Cytochrome P450 1B1 [1]) of 7.81, a pIC50 (Cytochrome P450 1A2) of 6.10 and a Ratio IC50 (Homo sapiens [2]) of 51. For the same compound, the Ratio IC50 (Homo sapiens [3]) was 22 and the pIC50 (Cytochrome P450 1A1 [4]) was 6.47.

In the case of `COc1ccc(/C=C/c2ccc(OC)cc2OC)c(OC)c1`, the pIC50 (Cytochrome P450 1B1 [1]) was 8.06, the pIC50 (Cytochrome P450 1A2) was 6.69 and the Ratio IC50 (Homo sapiens [2]) was 23. The Ratio IC50 (Homo sapiens [3]) was 25 and the pIC50 (Cytochrome P450 1A1 [4]) was 6.65.

In the case of `COc1cc(O)cc(/C=C/c2ccc(O)cc2)c1`, the pKi (Cytochrome P450 1A1 [5]) was 6.92 and the pKi (Cytochrome P450 1B1 [6]) was 6.05.

In the case of `COc1ccc(/C=C/c2cc(OC)c(OC)cc2OC)c(OC)c1`, the pIC50 (Cytochrome P450 1B1 [1]) was 8.26, the pIC50 (Cytochrome P450 1A2) was 6.63 and the Ratio IC50 (Homo sapiens [2]) was 43. It also gave a Ratio IC50 (Homo sapiens [3]) of 14 and a pIC50 (Cytochrome P450 1A1 [4]) of 7.11.

`COc1ccc(/C=C/c2c(OC)cc(OC)cc2OC)c(OC)c1` showed a pIC50 (Cytochrome P450 1B1 [1]) of 8.31, a pIC50 (Cytochrome P450 1A2) of 6.73 and a Ratio IC50 (Homo sapiens [2]) of 38. The Ratio IC50 (Homo sapiens [3]) was 30 and the pIC50 (Cytochrome P450 1A1 [4]) was 6.83.

For `COc1ccc(/C=C/c2cc(O)cc(O)c2)cc1` [RESVERATROL 4'-METHYL ETHER], the pKi (Cytochrome P450 1A1 [5]) was 6.80 and the pKi (Cytochrome P450 1B1 [6]) was 5.68.

`COc1ccc(/C=C/c2ccccc2)c(OC)c1` was tested, and the pIC50 (Cytochrome P450 1B1 [1]) was 7.60, the pIC50 (Cytochrome P450 1A2) was 6.49 and the Ratio IC50 (Homo sapiens [2]) was 13. For the same compound, the Ratio IC50 (Homo sapiens [3]) was 20 and the pIC50 (Cytochrome P450 1A1 [4]) was 6.31.

`COc1cc(/C=C/c2ccc(O)cc2)cc(OC)c1` [PTEROSTILBENE] showed a pKi (Cytochrome P450 1A1 [5]) of 6.24 and a pKi (Cytochrome P450 1B1 [6]) of 6.05.

With `COc1ccc(/C=C/c2ccc(OC)c(OC)c2)c(OC)c1` the pIC50 (Cytochrome P450 1B1 [1]) was 7.38, the pIC50 (Cytochrome P450 1A2) was 6.47 and the Ratio IC50 (Homo sapiens [2]) was 8.1. It also gave a Ratio IC50 (Homo sapiens [3]) of 4.6 and a pIC50 (Cytochrome P450 1A1 [4]) of 6.72.

In the case of `COc1ccc(/C=C/c2ccc(OC)cc2OC)cc1`, the pIC50 (Cytochrome P450 1B1 [1]) was 7.24, the pIC50 (Cytochrome P450 1A2) was 5.97 and the Ratio IC50 (Homo sapiens [2]) was 18. The Ratio IC50 (Homo sapiens [3]) was 12 and the pIC50 (Cytochrome P450 1A1 [4]) was 6.18.
